{"source": "patent US11708348B2", "about": "“Protease inhibitors for treatment of coronavirus infections” (The Scripps Research Institute, priority 2021, dated 2023)"}
{"tested_on": "SARS-CoV-2 strain USA-WA1/2020", "assay": "microbe, parasite or virus in culture", "format": "cell-based", "settings": "Severe acute respiratory syndrome coronavirus 2, HeLa-ACE2, 24 h, HeLa-ACE2 cells, SARS-CoV-2 infection, 24 h; cells given as a bound; read-out: EC50, uM (Hela)", "units": {"EC50": "µM"}}
{"compound": "COc1cccc2[nH]c(C(=O)N[C@@H](CC(C)C)C(=O)N[C@@H](C[C@@H]3CCNC3=O)C(=O)COCC(F)(F)F)cc12", "note": "[Compound 162, 4-methoxy-N-((S)-4-methyl-1-oxo-1-(((S)-3-oxo-1-((S)-2-oxopyrrolidin-3-yl)-4-(2,2,2-trifluoroethoxy)butan-2-yl)amino)pentan-2-yl)-1H-indole-2-carboxamide]", "EC50": "> 1"}
{"tested_on": "SARS-CoV-2 strain USA-WA1/2020", "assay": "microbe, parasite or virus in culture", "format": "cell-based", "settings": "Severe acute respiratory syndrome coronavirus 2, HeLa-ACE2, 24 h, HeLa-ACE2 cells, SARS-CoV-2 infection, 24 h; class symbols; read-out: EC50, uM (Hela)", "units": {"EC50": "µM"}}
{"compound": "CC(C)C[C@H](NC(=O)[C@H](O)CF)C(=O)N[C@@H](C[C@@H]1CCNC1=O)C(=O)COC(F)(F)F", "note": "[Compound 396, (S)-2-((S)-3-fluoro-2-hydroxypropanamido)-4-methyl-N-((S)-3-oxo-1-((S)-2-oxopyrrolidin-3-yl)-4-(trifluoromethoxy)butan-2-yl)pentanamide]", "EC50": "0.2 to 0.5"}
{"compound": "COc1cccc2[nH]c(C(=O)N[C@@H](CC(C)C)C(=O)N[C@@H](C[C@@H]3CCNC3=O)C(=O)COC(F)(F)F)cc12", "note": "[Compound 158, 4-methoxy-N—((S)-4-methyl-1-oxo-1-(((S)-3-oxo-1-((S)-2-oxopyrrolidin-3-yl)-4-(trifluoromethoxy)butan-2-yl)amino)pentan-2-yl)-1H-indole-2-carboxamide]", "EC50": "< 0.05"}
{"compound": "CC(C)C[C@H](NC(=O)c1ccc2c(c1)OC(F)(F)O2)C(=O)N[C@@H](C[C@@H]1CCNC1=O)C(=O)COC(F)(F)F", "note": "[Compound 153, 2,2-difluoro-N-((S)-4-methyl-1-oxo-1-(((S)-3-oxo-1-((S)-2-oxopyrrolidin-3-yl)-4-(trifluoromethoxy)butan-2-yl)amino)pentan-2-yl)benzo[d][l,3]dioxole-5-carboxamide]", "EC50": "< 0.05"}
{"compound": "O=C1NCC[C@H]1C[C@H](NC(=O)[C@@H]1CC2(CC2)CN1C(=O)[C@H](O)C(F)(F)F)C(=O)COC(F)(F)F", "note": "[Compound 385, (S)-N-((S)-3-oxo-1-((S)-2-oxopyrrolidin-3-yl)-4-(trifluoromethoxy)butan-2-yl)-5-((S)-3,3,3-trifluoro-2-hydroxypropanoyl)-5-azaspiro[2.4]heptane-6-carboxamide]", "EC50": "0.05 to 0.2"}
{"compound": "CC(C)C[C@H](NC(=O)C(=O)Nc1ccc(F)cc1)C(=O)N[C@@H](C[C@@H]1CCNC1=O)C(=O)COc1c(F)c(F)cc(F)c1F", "note": "[Compound 38, N1-(4-fluorophenyl)-N2-((S)-4-methyl-1-oxo-1-(((S)-3-oxo-1-((S)-2-oxopyrrolidin-3-yl)-4-(2,3,5,6-tetra-fluorophenoxy)butan-2-yl)amino)pentan-2-yl)oxalamide]", "EC50": "< 0.05"}
{"compound": "CC(C)[C@@H](O)C(=O)N1C[C@@H]2CCC[C@@H]2[C@H]1C(=O)N[C@@H](C[C@@H]1CCNC1=O)C(=O)COC(F)(F)F", "note": "[Compound 359, (1S,3aR,6aS)-2-((R)-2-hydroxy-3-methylbutanoyl)-N-((S)-3-oxo-1-((S)-2-oxopyrrolidin-3-yl)-4-(trifluoromethoxy)butan-2-yl)octahydrocyclo-penta[c]pyrrole-1-carboxamide]", "EC50": "0.05 to 0.2"}
{"compound": "CC(C)C[C@H](NC(=O)C(=O)N[C@H]1CCCc2ccccc21)C(=O)N[C@@H](C[C@@H]1CCNC1=O)C(=O)COc1c(F)c(F)cc(F)c1F", "note": "[Compound 145, N^1—((S)-4-methyl-1-oxo-1-(((S)-3-oxo-1-((S)-2-oxopyrrolidin-3-yl)-4-(2,3,5,6-tetrafluorophenoxy)butan-2-yl)amino)pentan-2-yl)-N^2—((S)-1,2,3,4-tetrahydronaphthalen-1-yl)oxalamide]", "EC50": "0.2 to 0.5"}
{"compound": "CC(C)C[C@H](NC(=O)OCc1ccccc1)C(=O)N[C@@H](C[C@@H]1CCNC1=O)C(=O)COc1c(F)c(F)cc(F)c1F", "note": "[Compound 15, benzyl ((S)-4-methyl-1-oxo-1-(((S)-3-oxo-1-((S)-2-oxopyrrolidin-3-yl)-4-(2,3,5,6-tetrafluorophenoxy)butan-2-yl)amino)pentan-2-yl)carbamate]", "EC50": "0.2 to 0.5"}
{"compound": "O=C1NCC[C@H]1C[C@H](NC(=O)[C@@H]1CC2(CC2)CN1C(=O)[C@H](O)CF)C(=O)COC(F)(F)F", "note": "[Compound 397, (S)-5-((S)-3-fluoro-2-hydroxypropanoyl)-N-((S)-3-oxo-1-((S)-2-oxopyrrolidin-3-yl)-4-(trifluoromethoxy)butan-2-yl)-5-azaspiro[2.4]heptane-6-carboxamide]", "EC50": "0.05 to 0.2"}
{"compound": "CC[C@@H](O)C(=O)N1[C@H](C(=O)N[C@@H](C[C@@H]2CCNC2=O)C(=O)COC(F)(F)F)C[C@@H]2CCC[C@@H]21", "note": "[Compound 374, (2S,3aS,6aS)-1-((R)-2-hydroxybutanoyl)-N-((S)-3-oxo-1-((S)-2-oxopyrrolidin-3-yl)-4-(trifluoromethoxy)butan-2-yl)octahydrocyclo-penta[b]pyrrole-2-carboxamide]", "EC50": "0.5 to 1"}
{"compound": "CC(C)C[C@H](NC(=O)c1cc2cnccc2[nH]1)C(=O)N[C@@H](C[C@@H]1CCNC1=O)C(=O)COc1c(F)c(F)cc(F)c1F", "note": "[Compound 29, N-((S)-4-methyl-1-oxo-1-(((S)-3-oxo-1-((S)-2-oxopyrrolidin-3-yl)-4-(2,3,5,6-tetrafluorophenoxy)butan-2-yl)amino)pentan-2-yl)-1H-pyrrolo[3,2-c]pyridine-2-carboxamide]", "EC50": "< 0.05"}
{"compound": "CC1(C)[C@@H]2[C@@H](C(=O)N[C@@H](C[C@@H]3CCNC3=O)C(=O)COC(F)(F)F)N(C(=O)C(O)CC(F)(F)F)C[C@@H]21", "note": "(stereo partly drawn) [Compound 391, (1R,2S,5S)-6,6-dimethyl-N-((S)-3-oxo-1-((S)-2-oxopyrrolidin-3-yl)-4-(trifluoromethoxy)butan-2-yl)-3-(4,4,4-trifluoro-2-hydroxybutanoyl)-3-azabicyclo[3.1.0]-hexane-2-carboxamide]", "EC50": "0.05 to 0.2"}
{"compound": "Cc1ccc(C2(NC(=O)C(=O)N[C@@H](CC(C)C)C(=O)N[C@@H](C[C@@H]3CCNC3=O)C(=O)COC(F)(F)F)CC2)cc1", "note": "[Compound 186, N1-((S)-4-methyl-1-oxo-1-(((S)-3-oxo-1-((S)-2-oxopyrrolidin-3-yl)-4-(trifluoromethoxy)butan-2-yl)amino)pentan-2-yl)-N2-(l-(p-tyolyl)-cyclopropyl)oxalamide]", "EC50": "< 0.05"}
{"tested_on": "SARS-CoV-2 strain USA-WA1/2020", "assay": "microbe, parasite or virus in culture", "format": "cell-based", "settings": "Severe acute respiratory syndrome coronavirus 2, HeLa-ACE2, 24 h, HeLa-ACE2 cells, SARS-CoV-2 infection, 24 h; given as bound; read-out: EC50, uM (Hela)", "units": {"EC50": "µM"}}
{"compound": "CC1(NC(=O)C(=O)N2CC3(CCC3)C[C@H]2C(=O)N[C@@H](C[C@@H]2CCNC2=O)C(=O)COC(F)(F)F)CC1", "note": "[Compound 558, (S)-6-(2-((l-methylcyclopropyl)-amino)-2-oxoacetyl)-N-((S)-3-oxo-1-((S)-2-oxopyrrolidin-3-yl)-4-(trifluoromethoxy)butan-2-yl)-6-azaspiro[3.4]octane-7-carboxamide]", "EC50": "> 1"}
{"tested_on": "SARS-CoV-2 strain USA-WA1/2020", "assay": "microbe, parasite or virus in culture", "format": "cell-based", "settings": "Severe acute respiratory syndrome coronavirus 2, HeLa-ACE2, 24 h, HeLa-ACE2 cells, SARS-CoV-2 infection, 24 h; read-out: EC50, uM (Hela)", "units": {"EC50": "µM"}}
{"compound": "O=C1NCC[C@H]1C[C@H](NC(=O)[C@@H]1CC2(CC2)CN1C(=O)CO)C(=O)COC(F)(F)F", "note": "[Compound 698, (S)-5-(2-hydroxyacetyl)-N-((S)-3-oxo-1-((S)-2-oxopyrrolidin-3-yl)-4-(trifluoromethoxy)butan-2-yl)-5-azaspiro[2.4]heptane-6-carboxamide]", "EC50": "0.05 to 0.2"}
{"compound": "CC(C)C[C@@H](O)C(=O)N1CCCC[C@H]1C(=O)N[C@@H](C[C@@H]1CCNC1=O)C(=O)COC(F)(F)F", "note": "[Compound 636, (S)-1-((R)-2-hydroxy-4-methylpentanoyl)-N-((S)-3-oxo-1-((S)-2-oxopyrrolidin-3-yl)-4-(trifluoromethoxy)butan-2-yl)piperidine-2-carboxamide]", "EC50": "0.05 to 0.2"}
{"compound": "O=C1NCC[C@H]1C[C@H](NC(=O)[C@@H]1CC2(CC2)CN1C(=O)[C@@H](O)CC(C(F)(F)F)C(F)(F)F)C(=O)COC(F)(F)F", "note": "[Compound 745, (S)-N-((S)-3-oxo-1-((S)-2-oxopyrrolidin-3-yl)-4-(trifluoromethoxy)butan-2-yl)-5-((S)-5,5,5-trifluoro-2-hydroxy-4-(trifluoromethyl)pentanoyl)-5-azaspiro[2.4]heptane-6-carboxamide]", "EC50": "< 0.05"}
{"compound": "CC(C)(F)C[C@@H](O)C(=O)N1CC2(CC2)C[C@H]1C(=O)N[C@@H](C[C@@H]1CCNC1=O)C(=O)COC(F)(F)F", "note": "[Compound 754, (S)-5-((R)-4-fluoro-2-hydroxy-4-methylpentanoyl)-N-((S)-3-oxo-1-((S)-2-oxopyrrolidin-3-yl)-4-(trifluoromethoxy)butan-2-yl)-5-azaspiro[2.4]heptane-6-carboxamide]", "EC50": "0.05 to 0.2"}
{"compound": "O=C(Nc1cccc(F)c1F)C(=O)N1CC2(CC2)C[C@H]1C(=O)N[C@@H](C[C@@H]1CCNC1=O)C(=O)COC(F)(F)F", "note": "[Compound 598, (S)-5-(2-((2,3-difluorophenyl)amino)-2-oxoacetyl)-N-((S)-3-oxo-1-((S)-2-oxopyrrolidin-3-yl)-4-(trifluoromethoxy)butan-2-yl)-5-azaspiro[2.4]heptane-6-carboxamide]", "EC50": "< 0.05"}
{"compound": "O=C1NCC[C@H]1C[C@H](NC(=O)[C@@H]1CC2(CC2)CN1C(=O)C1CCC(F)(F)CC1)C(=O)COC(F)(F)F", "note": "[Compound 661, (S)-5-(4,4-difluorocyclohexane-1-carbonyl)-N-((S)-3-oxo-1-((S)-2-oxopyrrolidin-3-yl)-4-(trifluoromethoxy)butan-2-yl)-5-azaspiro[2.4]heptane-6-carboxamide]", "EC50": "0.05 to 0.2"}
{"compound": "CC1(C)[C@@H]2[C@@H](C(=O)N[C@@H](C[C@@H]3CCNC3=O)C(=O)COC(F)(F)F)N(C(=O)c3cc(C(F)(F)F)no3)C[C@@H]21", "note": "[Compound 488, (1R,2S,5S)-6,6-dimethyl-N-((S)-3-oxo-1-((S)-2-oxo-pyrrolidin-3-yl)-4-(trifluoromethoxy)butan-2-yl)-3-(3-(trifluoromethyl)-isoxazole-5-carbonyl)-3-azabicyclo[3.1.0]-hexane-2-carboxamide]", "EC50": "0.05 to 0.2"}
{"tested_on": "SARS-CoV-2 strain USA-WA1/2020", "assay": "microbe, parasite or virus in culture", "format": "cell-based", "settings": "Severe acute respiratory syndrome coronavirus 2, HeLa-ACE2, 24 h; read-out: EC50, uM (Hela)", "units": {"EC50": "µM"}}
{"compound": "CC1(C)[C@@H]2[C@@H](C(=O)N[C@@H](C[C@@H]3CCNC3=O)C(=O)COC(F)(F)F)N(C(=O)C(CN3CCC(F)(F)CC3)NC(=O)C(F)(F)F)C[C@@H]21", "note": "(stereo partly drawn) [Compound 442, (1R,2S, 5S)-3-(3-(4,4-difluoropiperidin-1-yl)-2-(2,2,2-trifluoroacetamido)-propanoyl)-6,6-dimethyl-N-((S)-3-oxo-1-((S)-2-oxopyrrolidin-3-yl)-4-(trifluoromethoxy)butan-2-yl)-3-azabicyclo[3.1.0]-hexane-2-carboxamide]", "EC50": "0.2 to 0.5"}
